# Data published in paper PMC9371699, “Cell-penetrating peptides enhance peptide vaccine accumulation and persistence in lymph nodes to drive immunogenicity” (Proceedings of the National Academy of Sciences of the …, 2022).
# Ends that are not written are not given here.
# Experiments:
# [1] = T cell activation-based serum stability assay; assay type: in vitro ADME; conditions: 30 µM peptide in RPMI-1640 + 10% fresh mouse serum, 24 h, 37 °C, vs fresh peptide; titrated on splenocytes, CD69 read-out by flow cytometry
# Method: Peptides are also highly susceptible to proteolytic cleavage, resulting in a short half-life in vivo ([65], [66]). […] To test if the association of antigen-CPPs with serum components impacts peptide antigen stability, we used an in vitro antigen-presentation assay to functionally determine if T cells could still be activated by antigen-CPPs after incubation with serum proteases ([22]). Free gp100 peptide or gp100-CPP peptides were incubated for 24 h in 10% mouse serum, then added to splenocytes at titrated doses for 1 h to allow antigen uptake and processing, followed by culture with pmel-1 (gp100–specific) T cells for 24 h and assessment of pmel-1 CD69 expression (Fig. 6A and SI Appendix, Fig. S13). From these cocultures, we determined the peptide antigen concentration required for 50% of maximal CD69 up-regulation by the pmel-1 T cells (EC50) (Fig. 6B) and the change in EC50 for peptides preincubated with serum (ΔEC50) (Fig. 6C). […] In contrast, the ΔEC50 for gp100-CPPs ranged from 0.76 to 3.4 (Fig. 6C).
# Following prime and boost of mice with gp100 peptides, CD8^+ T cell responses were confirmed on day −1. […] CD69^+/CD8^+ T cell responses were measured by flow cytometry.
# Figure S13. […] Shown are plots of pmel activation, measured via CD69 upregulation, against the concentration of the fresh or serum -treated construct. […]
# [2] = biological target: proteinase K (Parengyodontium album, UniProt P06873); test: Proteolysis LC-MS assay; assay type: in vitro ADME; conditions: 5 µM peptide in PBS, 0.5 ng proteinase K, 37 °C, 2 hours, time points 0, 30, 60, 120 min, LC-MS (Q-TOF), no other serum components
# From the text: To gain more direct evidence of altered peptide stability, we used quadrupole time-of-flight liquid chromatography/MS (LC-QTOF-MS), to directly detect proteolytic degradation of pAntp and MPG conjugates in serum. […] We hypothesized that enhanced stability of the conjugates could reflect an intrinsic protective peptidase-/protease-blocking effect by the CPP or be an indirect effect mediated by binding of the conjugate to other serum proteins that sterically interfere with protease attack on the peptide. To distinguish these possibilities, we performed a similar experiment assessing proteolytic stability in the presence of purified proteinase K—a promiscuous protease that cleaves peptide bonds following hydrophobic amino acids—in the absence of other serum components.
# C18 column (2 μm particle size, 15 cm × 50 μm ID; Thermo Fisher Scientific). Mobile phase A was 0.1% formic acid in ultrapure water (v/v) and mobile phase B was 80% acetonitrile, 0.1% formic acid in ultrapure water (v/v). The nano-LC method was as follows: 1% B ramping in a linear manner to 41% B in A over 120 minutes, flow rate: 300 nL/min. Data were processed using PEAKS proteomics software.
# Serum stability LC-MS assay. […]
# Proteolysis LC-MS Assay. […] They were then resuspended 50:50 water:acetonitrile with 0.1% trifluoroacetic acid and reaction analyzed on an Agilent 6550 iFunnel Q -TOF MS. […]
# Sequence of proteinase K (P06873 106-384, species assumed): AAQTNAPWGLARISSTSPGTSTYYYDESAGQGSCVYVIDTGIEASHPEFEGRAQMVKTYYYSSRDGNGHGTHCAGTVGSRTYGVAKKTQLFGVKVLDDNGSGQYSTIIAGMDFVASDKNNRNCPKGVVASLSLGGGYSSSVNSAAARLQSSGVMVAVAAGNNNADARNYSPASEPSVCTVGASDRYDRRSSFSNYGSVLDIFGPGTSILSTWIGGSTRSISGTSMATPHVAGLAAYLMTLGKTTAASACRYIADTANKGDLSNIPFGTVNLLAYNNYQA
substance,measurement,setting,value
AVGALEGPRNQDWLGVPRQL-NH2 [gp100],increase in EC50 (CD69 up-regulation) after incubation in serum,[1],~16 fold
same,proteolytic stability with purified proteinase K,[2],rapid degradation
